Experimental data as given in paper PMC3025922 (BMC Biology, 2010).
Where “and” joins values, the source holds several entries; their conditions need not be identical. Identical values can stand only once.

How the values were obtained:
Format in all cases: cell-based, human
[1] = tested on: PC3 cells; assay: Cell cycle analysis by flow cytometry, PC3
Experimental: (§1) Cells were exposed to SMIPs (40 μM) for 24 h and 48 h. Cells were trypsinized, washed with PBS and suspended in 600 μL PBS. Cells were fixed by adding 1.4 mL cold absolute ethanol and kept at -20°C for at least 12 h. After washing once with PBS, the cells were resuspended in 250 μL PBS containing 2.5 μg RNAse A and incubated for 45 min at room temperature. Staining was done by adding 40 μg/mL of propidium iodine followed by incubation for 15 min at room temperature. DNA-bound fluorescence was read at 564 to 606 nm using FACSort and FACSCanto flow cytometers (BD Biosciences) at the Flow Cytometry Facility of the Sanford-Burnham Medical Research Institute. Distribution of cells in the different cell cycle phase was determined with ModFit LT 3.2.1 or FlowJo 8.6 software. Aggregates were excluded from the analysis manually using pulse shape or identified by automated modelling in ModFit LT.

[2] = tested on: LNCaP-S14 cells; assay: Cell cycle distribution in LNCaP-S14 transfected with siRNAs for p27 and p21
Experimental: as §1
LNCaP-S14 cells were seeded in 6 cm dishes or six-well-plates coated with poly-lysine the day before transfection. 10-20 nM of siRNA was transfected using DharmaFECT 3 (Thermo Scientific) according to the manufacturer's instructions. Briefly, siRNAs were dissolved in siRNA suspension buffer (Quiagen) at 20 μM, heated to 90°C for 1 min and incubated at 37°C for 1 h. siRNAs were added to the DharmaFECT 3 reagent diluted in Optimem media (1:100) and incubated for 20 min at room temperature. The mix was added to the cells for 24 h. Treatment with SMIPs (40 μM) or vehicle was carried on for another 24 h. Cells were obtained for FACS or lysed for immunoblotting analysis as described above. Untransfected cells as well as cells transfected with non-specific siRNA were used as controls. Silencer® Negative Control siRNA No.1 from Ambion (Applied Biosciences, CA, USA) was used as non-specific control siRNA. siRNA target sequences for p27 and p21 synthesized by IDT (Integrated DNA Technologies Inc, Iowa, USA) were as follows; p27 siRNA: […], and p21 siRNA: […] [56].

[3] = tested on: p27 protein levels in HeLa cells; assay: Immunoblot quantification of p27, HeLa
Experimental: (§2) Total cell lysate from cells treated with vehicle (DMSO) or compounds were obtained by incubating cells in lysis buffer (25 mM Tris-HCl pH 7.4, 150 mM NaCl, 0.5% Triton X-100, protease inhibitors) for 15 min at 4°C. The supernatant was collected by centrifugation and the amount of protein was determined with a Bio-Rad protein assay (Bio-Rad) using BSA as standard. Equal amounts of protein were subjected to SDS-PAGE (4%-20% gels, Invitrogen) and transferred to PVDF membranes. The membranes were blocked with TBST (50 mM Tris-HCl pH 7.5, 150 mM NaCl, 0.05% Tween-20) containing 5% non-fat dry milk or bovine serum albumin (BSA) for 1 h at room temperature, followed by incubation in primary antibodies 4°C overnight. Membranes were washed and incubated with secondary antibodies conjugated to HRP (Jackson ImmunoResearch Laboratories) for 1 h at room temperature. Signals were visualized using the ECL Western Blotting Substrate (Pierce Biotechnology, IL, USA) according to the manufacturer's instructions. Membranes were stripped using Restore™ Western Blot Stripping Buffer (Pierce Biotechnology). Films were scanned and quantification of the bands was performed using Image J software http://rsbweb.nih.gov/ij/.

[4] = tested on: p21 protein levels in HeLa cells; assay: Immunoblot quantification of p21, HeLa
Experimental: as §2

CC(C)(C)c1cc2cc(NC(=O)c3cccs3)ccc2[nH]1 [SMIP001]
Cell cycle distribution G1 [1]: 48.6 and 57.5 | Cell cycle distribution G2 [1]: 29.7 and 27.8 | Cell cycle distribution S [1]: 20.4 and 13.6 | % G1 [2]: 71.86% and 75.76% and 75.13% and 72.22% | % G2 [2]: 21.07% and 14.54% and 18.37% and 16.74% | % S [2]: 7.07% and 9.70% and 6.50% and 11.04% | p27 protein level (immunoblot, DMSO = 1.0) [3]: 1.1 ± 0.1 | p21 protein level (immunoblot, DMSO = 1.0) [4]: 1.1 ± 0.2
